# Measurements reported in ChEMBL document CHEMBL4219213, “The design, synthesis and structure-activity relationships associated with C28 amine-based betulinic acid derivatives as inhibitors of HIV-1 maturation” (Bioorg Med Chem Lett, 2018).
# Key:
# in vitro [1] = details: mouse, liver microsomes
# Description: Half life in mouse liver microsomes at 0.5 uM in presence of NADPH by LC-MS/MS method
# in vitro [2] = details: rat, liver microsomes
# Description: Half life in rat liver microsomes at 0.5 uM in presence of NADPH by LC-MS/MS method
# cells [3] = details: Human immunodeficiency virus 1, subtype B NL4-3, MT2
# in vitro [4] = details: human, liver microsomes
# Description: Half life in human liver microsomes at 0.5 uM in presence of NADPH by LC-MS/MS method
# cells [5] = details: Human immunodeficiency virus 1, subtype B NL4-3, MT2; remark: listed apart in the source
# in vivo [6] = details: Sprague-Dawley, rat, po, 5 mg/kg
# in vivo [7] = details: Sprague-Dawley, rat, plasma, po, 5 mg/kg
# Description: Plasma concentration in Sprague-Dawley rat at 5 mg/kg, po via gavage after 24 hrs by LC-MS/MS analysis
# in vitro [8] = details: human, MT2 cells
# Description: Cytotoxicity against human MT2 cells
# in vivo [9] = details: Sprague-Dawley, rat, po, 5 mg/kg; remark: listed apart in the source
# [10] = Dissociation constant, pKa of the compound; assay type: physicochemical
compound,measurement,setting,value
C=C(C)[C@@H]1CC[C@]2(C(=O)O)CC[C@]3(C)[C@H](CC[C@@H]4[C@@]5(C)CC=C(c6ccc(C(=O)O)cc6)C(C)(C)[C@@H]5CC[C@]43C)[C@@H]12,half-life at 0.5 µM,in vitro [1],> 2 h
same,half-life at 0.5 µM,in vitro [2],> 2 h
same,IC50,cells [3],> 6000 nM
same,half-life at 0.5 µM,in vitro [4],> 2 h
C=C(C)[C@@H]1CC[C@]2(C(=O)NCCN(C)C)CC[C@]3(C)[C@H](CC[C@@H]4[C@@]5(C)CC=C(c6ccc(C(=O)O)cc6)C(C)(C)[C@@H]5CC[C@]43C)[C@@H]12,EC50,cells [5],201 nM
same,half-life at 0.5 µM,in vitro [1],> 2 h
same,half-life at 0.5 µM,in vitro [2],> 2 h
same,IC50,cells [3],31 nM
same,half-life at 0.5 µM,in vitro [4],> 2 h
same,AUC(0-t) at 24 h,in vivo [6],3.81 µM·h
same,concentration at 24 h,in vivo [7],27 nM
C=C(C)[C@@H]1CC[C@]2(CNCCN(C)C)CC[C@]3(C)[C@H](CC[C@@H]4[C@@]5(C)CC=C(c6ccc(C(=O)O)cc6)C(C)(C)[C@@H]5CC[C@]43C)[C@@H]12,CC50,in vitro [8],1200 nM
same,half-life at 0.5 µM,in vitro [1],> 2 h
same,half-life at 0.5 µM,in vitro [2],> 2 h
same,IC50,cells [3],21 nM
same,half-life at 0.5 µM,in vitro [4],> 2 h
same,AUC(0-t) at 24 h,in vivo [6],1.28 µM·h
C=C(C)[C@@H]1CC[C@]2(CNCCCN3CCCC3=O)CC[C@]3(C)[C@H](CC[C@@H]4[C@@]5(C)CC=C(c6ccc(C(=O)O)cc6)C(C)(C)[C@@H]5CC[C@]43C)[C@@H]12,CC50,in vitro [8],5800 nM
same,IC50,cells [3],9.9 nM
same,AUC(0-t) at 6 h,in vivo [9],1.04 µM·h
C=C(C)[C@@H]1CC[C@]2(CN(CCCN3CCS(=O)(=O)CC3)C3CC3)CC[C@]3(C)[C@H](CC[C@@H]4[C@@]5(C)CC=C(c6ccc(C(=O)O)cc6)C(C)(C)[C@@H]5CC[C@]43C)[C@@H]12,CC50,in vitro [8],7000 nM
same,half-life at 0.5 µM,in vitro [1],> 2 h
same,half-life at 0.5 µM,in vitro [2],> 2 h
same,IC50,cells [3],43 nM
same,half-life at 0.5 µM,in vitro [4],> 2 h
C=C(C)[C@@H]1CC[C@]2(CNCCN3CCOCC3)CC[C@]3(C)[C@H](CC[C@@H]4[C@@]5(C)CC=C(c6ccc(C(=O)O)cc6)C(C)(C)[C@@H]5CC[C@]43C)[C@@H]12,pKa,[10],8.2
same,CC50,in vitro [8],5000 nM
same,half-life at 0.5 µM,in vitro [1],1.5 h
same,half-life at 0.5 µM,in vitro [2],> 2 h
same,IC50,cells [3],15 nM
same,half-life at 0.5 µM,in vitro [4],1.62 h
C=C(C)[C@@H]1CC[C@]2(CNCCN3CCCCC3)CC[C@]3(C)[C@H](CC[C@@H]4[C@@]5(C)CC=C(c6ccc(C(=O)O)cc6)C(C)(C)[C@@H]5CC[C@]43C)[C@@H]12,CC50,in vitro [8],4000 nM
same,IC50,cells [3],37 nM
C=C(C)[C@@H]1CC[C@]2(CNCCc3ccc(S(N)(=O)=O)cc3)CC[C@]3(C)[C@H](CC[C@@H]4[C@@]5(C)CC=C(c6ccc(C(=O)O)cc6)C(C)(C)[C@@H]5CC[C@]43C)[C@@H]12,CC50,in vitro [8],2400 nM
same,IC50,cells [3],16 nM
same,AUC(0-t) at 6 h,in vivo [9],0.288 µM·h
C=C(C)[C@@H]1CC[C@]2(CNCCN3CCS(=O)(=O)CC3)CC[C@]3(C)[C@H](CC[C@@H]4[C@@]5(C)CC=C(c6ccc(C(=O)O)cc6)C(C)(C)[C@@H]5CC[C@]43C)[C@@H]12,CC50,in vitro [8],2600 nM
same,half-life at 0.5 µM,in vitro [1],> 2 h
same,half-life at 0.5 µM,in vitro [2],1.8 h
same,IC50,cells [3],6 nM
same,half-life at 0.5 µM,in vitro [4],> 2 h
same,AUC(0-t) at 6 h,in vivo [9],2.05 µM·h
C=C(C)[C@@H]1CC[C@]2(CNCCN3CCNCC3)CC[C@]3(C)[C@H](CC[C@@H]4[C@@]5(C)CC=C(c6ccc(C(=O)O)cc6)C(C)(C)[C@@H]5CC[C@]43C)[C@@H]12,CC50,in vitro [8],2300 nM
same,half-life at 0.5 µM,in vitro [2],1.43 h
same,half-life at 0.5 µM,in vitro [4],> 2 h
C=C(C)[C@@H]1CC[C@]2(CNCCNC(C)=O)CC[C@]3(C)[C@H](CC[C@@H]4[C@@]5(C)CC=C(c6ccc(C(=O)O)cc6)C(C)(C)[C@@H]5CC[C@]43C)[C@@H]12,CC50,in vitro [8],6300 nM
same,IC50,cells [3],37 nM
C=C(C)[C@@H]1CC[C@]2(CNCCCN3CCN(C)CC3)CC[C@]3(C)[C@H](CC[C@@H]4[C@@]5(C)CC=C(c6ccc(C(=O)O)cc6)C(C)(C)[C@@H]5CC[C@]43C)[C@@H]12,CC50,in vitro [8],700 nM
same,half-life at 0.5 µM,in vitro [1],> 2 h
same,half-life at 0.5 µM,in vitro [2],> 2 h
same,IC50,cells [3],16 nM
same,half-life at 0.5 µM,in vitro [4],> 2 h
C=C(C)[C@@H]1CC[C@]2(CN(C)CCCN3CCS(=O)(=O)CC3)CC[C@]3(C)[C@H](CC[C@@H]4[C@@]5(C)CC=C(c6ccc(C(=O)O)cc6)C(C)(C)[C@@H]5CC[C@]43C)[C@@H]12,CC50,in vitro [8],10000 nM
same,half-life at 0.5 µM,in vitro [1],> 2 h
same,half-life at 0.5 µM,in vitro [2],> 2 h
same,IC50,cells [3],26 nM
same,half-life at 0.5 µM,in vitro [4],> 2 h
same,AUC(0-t) at 24 h,in vivo [6],9.06 µM·h
same,AUC(0-t) at 6 h,in vivo [9],4.83 µM·h
C=C(C)[C@@H]1CC[C@]2(CNCCCN3CCOCC3)CC[C@]3(C)[C@H](CC[C@@H]4[C@@]5(C)CC=C(c6ccc(C(=O)O)cc6)C(C)(C)[C@@H]5CC[C@]43C)[C@@H]12,pKa,[10],8.2
same,CC50,in vitro [8],2200 nM
same,IC50,cells [3],28 nM
same,AUC(0-t) at 6 h,in vivo [9],0.045 µM·h
C=C(C)[C@@H]1CC[C@]2(CNCCCNCCO)CC[C@]3(C)[C@H](CC[C@@H]4[C@@]5(C)CC=C(c6ccc(C(=O)O)cc6)C(C)(C)[C@@H]5CC[C@]43C)[C@@H]12,CC50,in vitro [8],320 nM
same,half-life at 0.5 µM,in vitro [2],> 2 h
same,IC50,cells [3],18 nM
same,half-life at 0.5 µM,in vitro [4],> 2 h
C=C(C)[C@@H]1CC[C@]2(CN(CCN(C)C)C(=O)CCC(=O)O)CC[C@]3(C)[C@H](CC[C@@H]4[C@@]5(C)CC=C(c6ccc(C(=O)O)cc6)C(C)(C)[C@@H]5CC[C@]43C)[C@@H]12,CC50,in vitro [8],30000 nM
same,IC50,cells [3],650 nM
same,AUC(0-t) at 6 h,in vivo [9],4.39 µM·h
C=C(C)[C@@H]1CC[C@]2(CNC(=O)CNC)CC[C@]3(C)[C@H](CC[C@@H]4[C@@]5(C)CC=C(c6ccc(C(=O)O)cc6)C(C)(C)[C@@H]5CC[C@]43C)[C@@H]12,CC50,in vitro [8],16000 nM
same,IC50,cells [3],27 nM
same,AUC(0-t) at 6 h,in vivo [9],0.54 µM·h
C=C(C)[C@@H]1CC[C@]2(CNCCN3CCC(F)(F)CC3)CC[C@]3(C)[C@H](CC[C@@H]4[C@@]5(C)CC=C(c6ccc(C(=O)O)cc6)C(C)(C)[C@@H]5CC[C@]43C)[C@@H]12,pKa,[10],8.6
same,CC50,in vitro [8],8500 nM
same,half-life at 0.5 µM,in vitro [1],> 2 h
same,half-life at 0.5 µM,in vitro [2],> 2 h
same,IC50,cells [3],57 nM
same,half-life at 0.5 µM,in vitro [4],> 2 h
C=C(C)[C@@H]1CC[C@]2(CNCCN(C(C)C)C(C)C)CC[C@]3(C)[C@H](CC[C@@H]4[C@@]5(C)CC=C(c6ccc(C(=O)O)cc6)C(C)(C)[C@@H]5CC[C@]43C)[C@@H]12,CC50,in vitro [8],3700 nM
same,IC50,cells [3],35 nM
C=C(C)[C@@H]1CC[C@]2(CNCCCO)CC[C@]3(C)[C@H](CC[C@@H]4[C@@]5(C)CC=C(c6ccc(C(=O)O)cc6)C(C)(C)[C@@H]5CC[C@]43C)[C@@H]12,CC50,in vitro [8],4600 nM
same,half-life at 0.5 µM,in vitro [2],> 2 h
same,IC50,cells [3],55 nM
same,half-life at 0.5 µM,in vitro [4],> 2 h
C=C(C)[C@@H]1CC[C@]2(CNCCN(CCO)CCO)CC[C@]3(C)[C@H](CC[C@@H]4[C@@]5(C)CC=C(c6ccc(C(=O)O)cc6)C(C)(C)[C@@H]5CC[C@]43C)[C@@H]12,CC50,in vitro [8],6800 nM
same,IC50,cells [3],8.4 nM
C=C(C)[C@@H]1CC[C@]2(CNCCN(CC)CC)CC[C@]3(C)[C@H](CC[C@@H]4[C@@]5(C)CC=C(c6ccc(C(=O)O)cc6)C(C)(C)[C@@H]5CC[C@]43C)[C@@H]12,CC50,in vitro [8],20000 nM
same,half-life at 0.5 µM,in vitro [1],> 2 h
same,half-life at 0.5 µM,in vitro [2],1.3 h
same,IC50,cells [3],35 nM
same,half-life at 0.5 µM,in vitro [4],> 2 h
C=C(C)[C@@H]1CC[C@]2(CNCCn3ccnc3)CC[C@]3(C)[C@H](CC[C@@H]4[C@@]5(C)CC=C(c6ccc(C(=O)O)cc6)C(C)(C)[C@@H]5CC[C@]43C)[C@@H]12,CC50,in vitro [8],12000 nM
same,IC50,cells [3],9.3 nM
same,AUC(0-t) at 6 h,in vivo [9],0.223 µM·h
C=C(C)[C@@H]1CC[C@]2(CNCCc3ccccn3)CC[C@]3(C)[C@H](CC[C@@H]4[C@@]5(C)CC=C(c6ccc(C(=O)O)cc6)C(C)(C)[C@@H]5CC[C@]43C)[C@@H]12,CC50,in vitro [8],7400 nM
C=C(C)[C@@H]1CC[C@]2(CNCCCN(C)c3ccccc3)CC[C@]3(C)[C@H](CC[C@@H]4[C@@]5(C)CC=C(c6ccc(C(=O)O)cc6)C(C)(C)[C@@H]5CC[C@]43C)[C@@H]12,CC50,in vitro [8],11000 nM
same,half-life at 0.5 µM,in vitro [1],> 2 h
same,half-life at 0.5 µM,in vitro [2],> 2 h
same,IC50,cells [3],60 nM
same,half-life at 0.5 µM,in vitro [4],> 2 h
same,AUC(0-t) at 6 h,in vivo [9],0.962 µM·h
C=C(C)[C@@H]1CC[C@]2(CNCCCN(C)C)CC[C@]3(C)[C@H](CC[C@@H]4[C@@]5(C)CC=C(c6ccc(C(=O)O)cc6)C(C)(C)[C@@H]5CC[C@]43C)[C@@H]12,CC50,in vitro [8],4500 nM
same,IC50,cells [3],200 nM
same,AUC(0-t) at 6 h,in vivo [9],0.01 µM·h
C=C(C)[C@@H]1CC[C@]2(CNCCNCCO)CC[C@]3(C)[C@H](CC[C@@H]4[C@@]5(C)CC=C(c6ccc(C(=O)O)cc6)C(C)(C)[C@@H]5CC[C@]43C)[C@@H]12,CC50,in vitro [8],2000 nM
same,half-life at 0.5 µM,in vitro [2],1.95 h
same,IC50,cells [3],20 nM
same,half-life at 0.5 µM,in vitro [4],> 2 h
C=C(C)[C@@H]1CC[C@]2(CNCCCN)CC[C@]3(C)[C@H](CC[C@@H]4[C@@]5(C)CC=C(c6ccc(C(=O)O)cc6)C(C)(C)[C@@H]5CC[C@]43C)[C@@H]12,CC50,in vitro [8],120 nM
same,half-life at 0.5 µM,in vitro [1],> 2 h
same,half-life at 0.5 µM,in vitro [2],> 2 h
same,IC50,cells [3],40 nM
same,half-life at 0.5 µM,in vitro [4],> 2 h
C=C(C)[C@@H]1CC[C@]2(CNCCCN3CCCCC3)CC[C@]3(C)[C@H](CC[C@@H]4[C@@]5(C)CC=C(c6ccc(C(=O)O)cc6)C(C)(C)[C@@H]5CC[C@]43C)[C@@H]12,CC50,in vitro [8],240 nM
same,half-life at 0.5 µM,in vitro [1],1.5 h
same,half-life at 0.5 µM,in vitro [2],1.37 h
same,IC50,cells [3],6.4 nM
same,half-life at 0.5 µM,in vitro [4],1.32 h
C=C(C)[C@@H]1CC[C@]2(CNCCN3CCN(C)CC3)CC[C@]3(C)[C@H](CC[C@@H]4[C@@]5(C)CC=C(c6ccc(C(=O)O)cc6)C(C)(C)[C@@H]5CC[C@]43C)[C@@H]12,CC50,in vitro [8],970 nM
same,IC50,cells [3],14 nM
